Test results taken from the NIST ThermoML archive (doi:10.1016/j.fluid.2017.12.001).
± gives the expanded uncertainty stated by the source.

Assay: xn = mol fraction of the nth substance listed
Details: 100.9 kPa, Liquid; for speed of sound: Single path-length method; for mass density: Vibrating tube method; for viscosity: Concentric cylinders viscometry

CCCC(=O)[O-].CC[NH2+]CC [diethylammonium butanoate] + O
Details | mass density [kg/m3] | speed of sound [m/s] | viscosity [mPa·s]
308.15 K, x1 = 0.0123 | 996.9 ± 0.4 | – | –
308.15 K, x1 = 0.0453 | 1000.03 ± 0.4 | – | –
308.15 K, x1 = 0.1005 | 994.12 ± 0.4 | – | –
308.15 K, x1 = 0.1439 | 981.01 ± 0.41 | – | –
308.15 K, x1 = 0.2067 | 973.03 ± 0.41 | 1659.9 ± 0.41 | –
308.15 K, x1 = 0.3096 | 957.65 ± 0.42 | 1581.6 ± 0.49 | –
308.15 K, x1 = 0.4951 | 938.09 ± 0.47 | 1494 ± 0.63 | –
308.15 K, x1 = 0.6812 | 927.6 ± 0.55 | 1435.5 ± 0.75 | –
308.15 K, x1 = 0.7974 | 912 ± 0.61 | 1424.2 ± 0.84 | –
308.15 K, x1 = 0.974 | 907.1 ± 0.75 | 1382.6 ± 0.98 | –
310.65 K, x1 = 0.0122 | – | – | 1.06 ± 0.02
310.65 K, x1 = 0.0451 | – | – | 2.43 ± 0.02
310.65 K, x1 = 0.0999 | – | – | 5.73 ± 0.03
310.65 K, x1 = 0.143 | – | – | 8.92 ± 0.04
310.65 K, x1 = 0.2051 | – | – | 14.41 ± 0.07
310.65 K, x1 = 0.3064 | – | – | 24.13 ± 0.12
310.65 K, x1 = 0.4879 | – | – | 34.17 ± 0.22
310.65 K, x1 = 0.6684 | – | – | 35.33 ± 0.27
310.65 K, x1 = 0.974 | – | – | 30.78 ± 0.32
313.15 K, x1 = 0.0122 | – | – | 1.01 ± 0.02
313.15 K, x1 = 0.0123 | 995 ± 0.4 | 1615.3 ± 0.22 | –
313.15 K, x1 = 0.0451 | – | – | 2.26 ± 0.02
313.15 K, x1 = 0.0453 | 997.13 ± 0.4 | 1743.8 ± 0.25 | –
313.15 K, x1 = 0.0999 | – | – | 5.25 ± 0.03
313.15 K, x1 = 0.1005 | 991.05 ± 0.4 | 1736.7 ± 0.29 | –
313.15 K, x1 = 0.143 | – | – | 8.13 ± 0.04
313.15 K, x1 = 0.1439 | 977.64 ± 0.41 | 1702.2 ± 0.35 | –
313.15 K, x1 = 0.2051 | – | – | 13.03 ± 0.06
313.15 K, x1 = 0.2067 | 969.96 ± 0.41 | 1644.3 ± 0.41 | –
313.15 K, x1 = 0.3064 | – | – | 21.59 ± 0.11
313.15 K, x1 = 0.3096 | 954.6 ± 0.43 | 1565.2 ± 0.49 | –
313.15 K, x1 = 0.4879 | – | – | 30.39 ± 0.19
313.15 K, x1 = 0.4951 | 934.18 ± 0.47 | 1478.3 ± 0.63 | –
313.15 K, x1 = 0.6684 | – | – | 31.48 ± 0.24
313.15 K, x1 = 0.6812 | 925.21 ± 0.55 | 1418.8 ± 0.75 | –
313.15 K, x1 = 0.7974 | 908.2 ± 0.61 | 1408.5 ± 0.84 | –
313.15 K, x1 = 0.974 | 903.2 ± 0.75 | 1365.2 ± 0.98 | 27.55 ± 0.28
315.65 K, x1 = 0.0122 | – | – | 0.96 ± 0.02
315.65 K, x1 = 0.0451 | – | – | 2.1 ± 0.02
315.65 K, x1 = 0.0999 | – | – | 4.82 ± 0.03
315.65 K, x1 = 0.143 | – | – | 7.42 ± 0.04
315.65 K, x1 = 0.2051 | – | – | 11.82 ± 0.06
315.65 K, x1 = 0.3064 | – | – | 19.39 ± 0.1
315.65 K, x1 = 0.4879 | – | – | 27.14 ± 0.17
315.65 K, x1 = 0.6684 | – | – | 28.13 ± 0.22
315.65 K, x1 = 0.974 | – | – | 24.73 ± 0.26
318.15 K, x1 = 0.0122 | – | – | 0.92 ± 0.02
318.15 K, x1 = 0.0123 | 992.7 ± 0.4 | 1617.5 ± 0.22 | –
318.15 K, x1 = 0.0451 | – | – | 1.96 ± 0.02
318.15 K, x1 = 0.0453 | 994.15 ± 0.4 | 1734.2 ± 0.25 | –
318.15 K, x1 = 0.0999 | – | – | 4.45 ± 0.03
318.15 K, x1 = 0.1005 | 987.76 ± 0.4 | 1722.8 ± 0.29 | –
318.15 K, x1 = 0.143 | – | – | 6.82 ± 0.04
318.15 K, x1 = 0.1439 | 974.31 ± 0.41 | 1687.3 ± 0.35 | –
318.15 K, x1 = 0.2051 | – | – | 10.76 ± 0.05
318.15 K, x1 = 0.2067 | 967.21 ± 0.41 | 1628.7 ± 0.41 | –
318.15 K, x1 = 0.3064 | – | – | 17.45 ± 0.09
318.15 K, x1 = 0.3096 | 952.7 ± 0.43 | 1548.6 ± 0.49 | –
318.15 K, x1 = 0.4879 | – | – | 24.28 ± 0.15
318.15 K, x1 = 0.4951 | 930.28 ± 0.47 | 1462.4 ± 0.63 | –
318.15 K, x1 = 0.6684 | – | – | 25.23 ± 0.2
318.15 K, x1 = 0.6812 | 922.19 ± 0.55 | 1401.9 ± 0.75 | –
318.15 K, x1 = 0.7974 | 904.3 ± 0.61 | 1393.8 ± 0.84 | –
318.15 K, x1 = 0.974 | 899.2 ± 0.75 | 1348.2 ± 0.98 | 22.26 ± 0.23
320.65 K, x1 = 0.0122 | – | – | 0.87 ± 0.02
320.65 K, x1 = 0.0451 | – | – | 1.84 ± 0.02
320.65 K, x1 = 0.0999 | – | – | 4.11 ± 0.03
320.65 K, x1 = 0.143 | – | – | 6.24 ± 0.03
320.65 K, x1 = 0.2051 | – | – | 9.82 ± 0.05
320.65 K, x1 = 0.3064 | – | – | 15.77 ± 0.08
320.65 K, x1 = 0.4879 | – | – | 21.77 ± 0.14
320.65 K, x1 = 0.6684 | – | – | 22.68 ± 0.18
320.65 K, x1 = 0.974 | – | – | 20.08 ± 0.21
